{"source": "patent US9249378B2", "about": "“Aqueous cleaning compositions having enhanced properties” (Eastman Chemical Company, priority 2013, dated 2016)", "assay": "Solvent vapor pressure at 20° C.", "excerpt": "The solvents used to formulate these compositions, along with a few select physical properties of each solvent, are summarized in Table 2, below.", "note": "Read-outs that look alike come from different tables or passages of the source."}
{"compound": "CCC(C)OC(=O)CC(C)O", "note": "(stereo not shown) [2-butyl 3-hydroxybutyrate]", "values": [{"measurement": "Solvent Vapor Pressure at 20° C.", "result": 0.098, "unit": "torr"}]}
{"compound": "OCc1ccccc1", "note": "[Benzyl Alcohol]", "values": [{"measurement": "Solvent Vapor Pressure at 20° C.", "result": 0.076, "unit": "torr"}]}
{"compound": "CCCCOCCOCCO", "note": "[Diethylene Glycol Monobutyl Ether]", "values": [{"measurement": "Solvent Vapor Pressure at 20° C.", "setting": "neat solvent, 20° C.", "result": 0.02, "unit": "torr"}]}
{"compound": "CCOCCOCCO", "note": "[Diethylene Glycol Monoethyl Ether]", "values": [{"measurement": "Solvent Vapor Pressure at 20° C.", "result": 0.12, "unit": "torr"}]}
{"compound": "CCCCOCCO", "note": "[Ethylene glycol monobutyl ether]", "values": [{"measurement": "Solvent Vapor Pressure at 20° C.", "setting": "neat solvent, 20° C.", "result": 0.60, "unit": "torr"}]}
{"compound": "C=C(C)[C@H]1CC=C(C)CC1", "note": "[d-limonene]", "values": [{"measurement": "Solvent Vapor Pressure at 20° C.", "setting": "neat solvent, 20° C.", "result": 1.5, "unit": "torr"}]}
{"compound": "CC(C)COC(=O)CC(C)O", "note": "(stereo not shown) [i-butyl 3-hydroxybutyrate]", "values": [{"measurement": "Solvent Vapor Pressure at 20° C.", "result": 0.08, "unit": "torr"}]}
{"compound": "CC(O)CC(=O)OC(C)C", "note": "(stereo not shown) [i-propyl 3-hydroxybutyrate, isopropyl 3-hydroxybutyrate]", "values": [{"measurement": "Solvent Vapor Pressure at 20° C.", "result": 0.17, "unit": "torr"}]}
{"compound": "CCCCOC(=O)CC(C)O", "note": "(stereo not shown) [n-butyl 3-hydroxybutyrate]", "values": [{"measurement": "Solvent Vapor Pressure at 20° C.", "result": 0.06, "unit": "torr"}]}
{"compound": "dibasic ester", "values": [{"measurement": "Solvent Vapor Pressure at 20° C.", "setting": "neat solvent, 20° C.", "result": 0.20, "unit": "torr"}]}
